Measured values from US8765712B2, “Agent for preventing and treating pityriasis versicolor” (Justus-Liebig-Universitaet Giessen, priority 2009, dated 2014).
“Also recorded” adds a separate entry of the source.

Columns and labels:
[1] = test system: M. furfur CBS 1878; test: Agar diffusion assay on pigment-inducing medium (p-agar) with TRP as sole nitrogen source; format: cell-based, Malassezia furfur
Protocol: The pigment-inducing medium (p-agar) is composed of (for 1 liter medium)
After autoclaving for 30 min at 1 bar, the following is added:
At approx. 50° C., the following heat-labile component is added:
The pH value is approximately pH 5.0.
Each 25 ml of the medium are poured into petri dishes with a diameter of 10 cm. A suspension of M. furfur CBS 1878 (approx. 5 inoculation loops of a strain previously grown on Dixon's agar) is suspended in 1 ml aq. dest., transferred to the p-agar and spread by tilting the plate. […] The pigment composition can be determined after extraction and separation via thin layer chromatography.
For this purpose, M. furfur CBS 1878 is spread on the surface of an agar plate with pigment-inducing medium as describe above, subsequently 4 mm-holes are punched into the agar using a sterile punch. […] The agar diffusion assay is performed with transaminase inhibitor e.g. aminooxyacetate (Sigma) in water, which is adjusted to pH 5 with 1 n NaOH. Concentrations are 0.05 molar top left; 0.1 molar top right; 0.25 molar bottom left, and 0.5 molar bottom right.

[2] = test system: pityriasis versicolor; test: Topical application in humans; format: in vivo
Excerpt: Transaminase inhibitors such as aminooxyacetate and/or cycloserine, e.g. D-cycloserine, DL-cycloserine, L-cycloserine or one of the derivatives thereof like e.g. terizidone are suitable for an application in humans. A topical application of 5% in unguentum emulsificans aquosum, applied over several days, is well tolerated without side effects. For prophylactic purposes, a 0.05-5% w/w preparation is used, preferably as shaking mixture/suspension cutanea aquosa, aqueous, oily, or alcoholic suspension, emulsion, paste, cream, ointment, spray, lipophilic gel, hydrophilic gel or plaster, shampoo, bath additive or mud, since the entire body should be treated if possible. For prophylaxis, application is performed daily up to several-day intervals. The same applies to the therapeutic use. D-cycloserine is preferably used in aqueous solution, e.g. 0.2 molar, adjusted to pH 7 with e.g. phosphate buffer.

[3] = test system: M. furfur; test: Agar diffusion assay on complete medium Dixon's agar; settings: 4 days, concentrations as in FIG. 1 (0.05-0.5 molar)
Protocol: For this purpose, an identical experimental approach as described above is chosen and the fungus is grown on a complete medium Dixon's agar for 4 days. Transaminase inhibitor, e.g. aminooxyacetate solution (e.g. Sigma) or D-cycloserine, DL-cycloserine, L-cycloserine or a derivative thereof such as e.g. terizidone, is added in above mentioned concentrations at the beginning of the experiment.

| SMILES | suppression of pigment formation in vitro [1] | suppression of pigment formation in vivo in humans [2] | other results |
| --- | --- | --- | --- |
| NC1CONC1=O (racemic) [DL-cycloserine] | comparable suppression | comparable suppression |  |
| N[C@@H]1CONC1=O [D-cycloserine] | comparable suppression | comparable suppression | healing of lesions ([2]; aqueous solution 0.2 molar, pH 7 (phosphate buffer), twice a day, after three days): complete healing of lesions; side effects / tolerability ([2]; aqueous solution 0.2 molar, pH 7, twice a day): without side effects and is very well tolerated |
| N[C@H]1CONC1=O [L-cycloserine] | comparable suppression | comparable suppression |  |
| Cl.NOCC(=O)O.NOCC(=O)O [aminooxyacetate, O-(carboxymethyl)hydroxylamine hemihydrochloride] |  |  | pigment synthesis (tryptophan-dependent pathway) ([1]; 4-days old culture, TRP as sole nitrogen source, 20 μl in 4 mm holes, 0.05, 0.1, 0.25, 0.5 molar in water, pH 5, hemihydrochloride): completely inhibited; also recorded: abolished; growth of the fungus ([1]; pigment-inducing medium, TRP as sole nitrogen source, 0.05-0.5 molar, pH 5): inhibited; effect of specific inhibition of transamination on complete medium [3]: no effect |
| O=C1NOCC1/N=C/c1ccc(/C=N/C2CONC2=O)cc1 (stereo not drawn) [terizidone] | inhibit pigment formation |  |  |
